According to PubChem BioAssay AID1963980 (Molecular Pharmacology Branch, DTP, NCI, 2024):

Tested on: 475296-252-R-J1-PDC spheroid viability
Test: Anticancer human tumor 475296-252-R-J1-PDC patient-derived rectal carcinoma cell line growth inhibition [PI3K]
Conditions: curve of first compound; second compound 0.00316 µM; spheroids with HUVEC and MSC
Procedure, shortened: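 Three cell types, namely tumor cells, endothelial cells and mesenchymal stem cells, formed each spheroid. Combinations with four PI3K inhibitors were screened at clinically achievable concentrations decreasing by half-log, and spheroid viability was recorded.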
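Also: spheroids exposed to agents for seven days before readout.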

CC(C)NCC(C(=O)N1CCN(c2ncnc3c2C(C)CC3O)CC1)c1ccc(Cl)cc1 (configuration not stated) + COc1c(OCCCN2CCOCC2)ccc2c3n(c(=NC(=O)c4cnc(N)nc4)nc12)CCN3 and CCN1CCN(Cc2ccc(Nc3ncc(F)c(-c4cc(F)c5nc(C)n(C(C)C)c5c4)n3)nc2)CC1 + COc1c(OCCCN2CCOCC2)ccc2c3n(c(=NC(=O)c4cnc(N)nc4)nc12)CCN3 cannot be ordered by IC50: greater than 10000 nM for the first, greater than 1000 nM for the second.

Cn1ncc(Cl)c1-c1cc(C(=O)NC(CN)Cc2cccc(F)c2)sc1Cl (configuration not stated) + COc1c(OCCCN2CCOCC2)ccc2c3n(c(=NC(=O)c4cnc(N)nc4)nc12)CCN3 and Cn1nccc1Nc1nccc(-c2ccn(C(CO)c3ccc(Cl)c(F)c3)c(=O)c2)n1 (configuration not stated) + COc1c(OCCCN2CCOCC2)ccc2c3n(c(=NC(=O)c4cnc(N)nc4)nc12)CCN3 cannot be ordered by IC50: greater than 10000 nM for the first, greater than 10000 nM for the second.

Same assay, conditions: curve of first compound; second compound 0.01 µM; spheroids with HUVEC and MSC

CC(C)NCC(C(=O)N1CCN(c2ncnc3c2C(C)CC3O)CC1)c1ccc(Cl)cc1 (configuration not stated) + COc1c(OCCCN2CCOCC2)ccc2c3n(c(=NC(=O)c4cnc(N)nc4)nc12)CCN3 and CCN1CCN(Cc2ccc(Nc3ncc(F)c(-c4cc(F)c5nc(C)n(C(C)C)c5c4)n3)nc2)CC1 + COc1c(OCCCN2CCOCC2)ccc2c3n(c(=NC(=O)c4cnc(N)nc4)nc12)CCN3 cannot be ordered by IC50: greater than 10000 nM for the first, greater than 1000 nM for the second.

Cn1ncc(Cl)c1-c1cc(C(=O)NC(CN)Cc2cccc(F)c2)sc1Cl (configuration not stated) + COc1c(OCCCN2CCOCC2)ccc2c3n(c(=NC(=O)c4cnc(N)nc4)nc12)CCN3 and Cn1nccc1Nc1nccc(-c2ccn(C(CO)c3ccc(Cl)c(F)c3)c(=O)c2)n1 (configuration not stated) + COc1c(OCCCN2CCOCC2)ccc2c3n(c(=NC(=O)c4cnc(N)nc4)nc12)CCN3 cannot be ordered by IC50: greater than 10000 nM for the first, greater than 10000 nM for the second.

Same assay, conditions: curve of first compound; second compound 0.0316 µM; spheroids with HUVEC and MSC

CC(C)NCC(C(=O)N1CCN(c2ncnc3c2C(C)CC3O)CC1)c1ccc(Cl)cc1 (configuration not stated) + COc1c(OCCCN2CCOCC2)ccc2c3n(c(=NC(=O)c4cnc(N)nc4)nc12)CCN3 and CCN1CCN(Cc2ccc(Nc3ncc(F)c(-c4cc(F)c5nc(C)n(C(C)C)c5c4)n3)nc2)CC1 + COc1c(OCCCN2CCOCC2)ccc2c3n(c(=NC(=O)c4cnc(N)nc4)nc12)CCN3 cannot be ordered by IC50: greater than 10000 nM for the first, greater than 1000 nM for the second.

Cn1ncc(Cl)c1-c1cc(C(=O)NC(CN)Cc2cccc(F)c2)sc1Cl (configuration not stated) + COc1c(OCCCN2CCOCC2)ccc2c3n(c(=NC(=O)c4cnc(N)nc4)nc12)CCN3 and Cn1nccc1Nc1nccc(-c2ccn(C(CO)c3ccc(Cl)c(F)c3)c(=O)c2)n1 (configuration not stated) + COc1c(OCCCN2CCOCC2)ccc2c3n(c(=NC(=O)c4cnc(N)nc4)nc12)CCN3 are within 1.5-fold of each other in IC50: 2090 nM for the first, 2780 nM for the second.

Same assay, conditions: curve of first compound; second compound 0.1 µM; spheroids with HUVEC and MSC

CC(C)NCC(C(=O)N1CCN(c2ncnc3c2C(C)CC3O)CC1)c1ccc(Cl)cc1 (configuration not stated) + COc1c(OCCCN2CCOCC2)ccc2c3n(c(=NC(=O)c4cnc(N)nc4)nc12)CCN3 and CCN1CCN(Cc2ccc(Nc3ncc(F)c(-c4cc(F)c5nc(C)n(C(C)C)c5c4)n3)nc2)CC1 + COc1c(OCCCN2CCOCC2)ccc2c3n(c(=NC(=O)c4cnc(N)nc4)nc12)CCN3 cannot be ordered by IC50: greater than 10000 nM for the first, greater than 1000 nM for the second.

First: Cn1ncc(Cl)c1-c1cc(C(=O)NC(CN)Cc2cccc(F)c2)sc1Cl (configuration not stated) + COc1c(OCCCN2CCOCC2)ccc2c3n(c(=NC(=O)c4cnc(N)nc4)nc12)CCN3
Second: Cn1nccc1Nc1nccc(-c2ccn(C(CO)c3ccc(Cl)c(F)c3)c(=O)c2)n1 (configuration not stated) + COc1c(OCCCN2CCOCC2)ccc2c3n(c(=NC(=O)c4cnc(N)nc4)nc12)CCN3
The IC50 of the first is 2.9-fold higher: 2920 nM for the first, 1020 nM for the second.

Same assay, conditions: curve of first compound; second compound 0.316 µM; spheroids with HUVEC and MSC

CC(C)NCC(C(=O)N1CCN(c2ncnc3c2C(C)CC3O)CC1)c1ccc(Cl)cc1 (configuration not stated) + COc1c(OCCCN2CCOCC2)ccc2c3n(c(=NC(=O)c4cnc(N)nc4)nc12)CCN3 and CCN1CCN(Cc2ccc(Nc3ncc(F)c(-c4cc(F)c5nc(C)n(C(C)C)c5c4)n3)nc2)CC1 + COc1c(OCCCN2CCOCC2)ccc2c3n(c(=NC(=O)c4cnc(N)nc4)nc12)CCN3 cannot be ordered by IC50: greater than 10000 nM for the first, greater than 1000 nM for the second.

Going from Cn1ncc(Cl)c1-c1cc(C(=O)NC(CN)Cc2cccc(F)c2)sc1Cl (configuration not stated) + COc1c(OCCCN2CCOCC2)ccc2c3n(c(=NC(=O)c4cnc(N)nc4)nc12)CCN3 to Cn1nccc1Nc1nccc(-c2ccn(C(CO)c3ccc(Cl)c(F)c3)c(=O)c2)n1 (configuration not stated) + COc1c(OCCCN2CCOCC2)ccc2c3n(c(=NC(=O)c4cnc(N)nc4)nc12)CCN3, the IC50 falls from 1360 nM to 612 nM (2.2-fold). The second is the more potent here.

Same assay, conditions: curve of first compound; second compound 1 µM; spheroids with HUVEC and MSC

CC(C)NCC(C(=O)N1CCN(c2ncnc3c2C(C)CC3O)CC1)c1ccc(Cl)cc1 (configuration not stated) + COc1c(OCCCN2CCOCC2)ccc2c3n(c(=NC(=O)c4cnc(N)nc4)nc12)CCN3 and CCN1CCN(Cc2ccc(Nc3ncc(F)c(-c4cc(F)c5nc(C)n(C(C)C)c5c4)n3)nc2)CC1 + COc1c(OCCCN2CCOCC2)ccc2c3n(c(=NC(=O)c4cnc(N)nc4)nc12)CCN3 cannot be ordered by IC50: 6180 nM for the first, greater than 1000 nM for the second.

First: Cn1ncc(Cl)c1-c1cc(C(=O)NC(CN)Cc2cccc(F)c2)sc1Cl (configuration not stated) + COc1c(OCCCN2CCOCC2)ccc2c3n(c(=NC(=O)c4cnc(N)nc4)nc12)CCN3
Second: Cn1nccc1Nc1nccc(-c2ccn(C(CO)c3ccc(Cl)c(F)c3)c(=O)c2)n1 (configuration not stated) + COc1c(OCCCN2CCOCC2)ccc2c3n(c(=NC(=O)c4cnc(N)nc4)nc12)CCN3
The IC50 of the first is 6.9-fold higher: 888 nM for the first, 129 nM for the second. The second is the more potent here.

Same assay, conditions: second compound 0.00316 µM; first compound 0.00316 µM; stronger effect = lower value; spheroids with HUVEC and MSC

Compound CCN1CCN(Cc2ccc(Nc3ncc(F)c(-c4cc(F)c5nc(C)n(C(C)C)c5c4)n3)nc2)CC1 + COc1c(OCCCN2CCOCC2)ccc2c3n(c(=NC(=O)c4cnc(N)nc4)nc12)CCN3 has a viability, T/C of 99.3%.

Same assay, conditions: second compound 0.00316 µM; first compound 0.01 µM; stronger effect = lower value; spheroids with HUVEC and MSC

CCN1CCN(Cc2ccc(Nc3ncc(F)c(-c4cc(F)c5nc(C)n(C(C)C)c5c4)n3)nc2)CC1 + COc1c(OCCCN2CCOCC2)ccc2c3n(c(=NC(=O)c4cnc(N)nc4)nc12)CCN3 gave a viability, T/C of 102%.

Same assay, conditions: second compound 0.00316 µM; first compound 0.0316 µM; stronger effect = lower value; spheroids with HUVEC and MSC

First: CC(C)NCC(C(=O)N1CCN(c2ncnc3c2C(C)CC3O)CC1)c1ccc(Cl)cc1 (configuration not stated) + COc1c(OCCCN2CCOCC2)ccc2c3n(c(=NC(=O)c4cnc(N)nc4)nc12)CCN3
Second: CCN1CCN(Cc2ccc(Nc3ncc(F)c(-c4cc(F)c5nc(C)n(C(C)C)c5c4)n3)nc2)CC1 + COc1c(OCCCN2CCOCC2)ccc2c3n(c(=NC(=O)c4cnc(N)nc4)nc12)CCN3
The viability, T/C of the first is higher: 98.5% for the first, 97.5% for the second.

Compared with Cn1ncc(Cl)c1-c1cc(C(=O)NC(CN)Cc2cccc(F)c2)sc1Cl (configuration not stated) + COc1c(OCCCN2CCOCC2)ccc2c3n(c(=NC(=O)c4cnc(N)nc4)nc12)CCN3, Cn1nccc1Nc1nccc(-c2ccn(C(CO)c3ccc(Cl)c(F)c3)c(=O)c2)n1 (configuration not stated) + COc1c(OCCCN2CCOCC2)ccc2c3n(c(=NC(=O)c4cnc(N)nc4)nc12)CCN3 is higher in viability, T/C: 86.5% for the first, 88.1% for the second.

Same assay, conditions: second compound 0.00316 µM; first compound 0.1 µM; stronger effect = lower value; spheroids with HUVEC and MSC

First: CC(C)NCC(C(=O)N1CCN(c2ncnc3c2C(C)CC3O)CC1)c1ccc(Cl)cc1 (configuration not stated) + COc1c(OCCCN2CCOCC2)ccc2c3n(c(=NC(=O)c4cnc(N)nc4)nc12)CCN3
Second: CCN1CCN(Cc2ccc(Nc3ncc(F)c(-c4cc(F)c5nc(C)n(C(C)C)c5c4)n3)nc2)CC1 + COc1c(OCCCN2CCOCC2)ccc2c3n(c(=NC(=O)c4cnc(N)nc4)nc12)CCN3
The viability, T/C of the first is lower: 94.5% for the first, 104% for the second.

First: Cn1ncc(Cl)c1-c1cc(C(=O)NC(CN)Cc2cccc(F)c2)sc1Cl (configuration not stated) + COc1c(OCCCN2CCOCC2)ccc2c3n(c(=NC(=O)c4cnc(N)nc4)nc12)CCN3
Second: Cn1nccc1Nc1nccc(-c2ccn(C(CO)c3ccc(Cl)c(F)c3)c(=O)c2)n1 (configuration not stated) + COc1c(OCCCN2CCOCC2)ccc2c3n(c(=NC(=O)c4cnc(N)nc4)nc12)CCN3
The viability, T/C of the first is lower: 70.6% for the first, 107% for the second.

Same assay, conditions: second compound 0.00316 µM; first compound 0.316 µM; stronger effect = lower value; spheroids with HUVEC and MSC

Compared with CC(C)NCC(C(=O)N1CCN(c2ncnc3c2C(C)CC3O)CC1)c1ccc(Cl)cc1 (configuration not stated) + COc1c(OCCCN2CCOCC2)ccc2c3n(c(=NC(=O)c4cnc(N)nc4)nc12)CCN3, CCN1CCN(Cc2ccc(Nc3ncc(F)c(-c4cc(F)c5nc(C)n(C(C)C)c5c4)n3)nc2)CC1 + COc1c(OCCCN2CCOCC2)ccc2c3n(c(=NC(=O)c4cnc(N)nc4)nc12)CCN3 is higher in viability, T/C: 94.1% for the first, 100% for the second.

First: Cn1ncc(Cl)c1-c1cc(C(=O)NC(CN)Cc2cccc(F)c2)sc1Cl (configuration not stated) + COc1c(OCCCN2CCOCC2)ccc2c3n(c(=NC(=O)c4cnc(N)nc4)nc12)CCN3
Second: Cn1nccc1Nc1nccc(-c2ccn(C(CO)c3ccc(Cl)c(F)c3)c(=O)c2)n1 (configuration not stated) + COc1c(OCCCN2CCOCC2)ccc2c3n(c(=NC(=O)c4cnc(N)nc4)nc12)CCN3
The viability, T/C of the first is lower: 80.1% for the first, 95.3% for the second.

Same assay, conditions: second compound 0.00316 µM; first compound 1 µM; stronger effect = lower value; spheroids with HUVEC and MSC

First: CC(C)NCC(C(=O)N1CCN(c2ncnc3c2C(C)CC3O)CC1)c1ccc(Cl)cc1 (configuration not stated) + COc1c(OCCCN2CCOCC2)ccc2c3n(c(=NC(=O)c4cnc(N)nc4)nc12)CCN3
Second: CCN1CCN(Cc2ccc(Nc3ncc(F)c(-c4cc(F)c5nc(C)n(C(C)C)c5c4)n3)nc2)CC1 + COc1c(OCCCN2CCOCC2)ccc2c3n(c(=NC(=O)c4cnc(N)nc4)nc12)CCN3
The viability, T/C of the first is higher: 92.2% for the first, 90.6% for the second.

Going from Cn1ncc(Cl)c1-c1cc(C(=O)NC(CN)Cc2cccc(F)c2)sc1Cl (configuration not stated) + COc1c(OCCCN2CCOCC2)ccc2c3n(c(=NC(=O)c4cnc(N)nc4)nc12)CCN3 to Cn1nccc1Nc1nccc(-c2ccn(C(CO)c3ccc(Cl)c(F)c3)c(=O)c2)n1 (configuration not stated) + COc1c(OCCCN2CCOCC2)ccc2c3n(c(=NC(=O)c4cnc(N)nc4)nc12)CCN3, the viability, T/C rises from 67.9% to 94.8%.
